In patent US20090022687A1, “Novel Pharmaceuticals That Use Anti-HLA Antibodies” (Chugai Seiyaku Kabushiki Kaisha, priority 2005, published 2009):

Key:
[1] = system: myeloma cell line RPMI 8226; test: Effects of signal transduction inhibitors on cell injury by 2D7-DB; details: 60 minutes of pretreatment, 2D7-DB 1 μg/mL
Description: This time, the present inventors further examined the antitumor mechanism of 2D7-DB. First, 60 minutes of pretreatment was performed using various signal transduction inhibitors, and their effects on cell injury of the myeloma cell line RPMI 8226 after 2D7-DB (1 μg/mL) addition were examined (FIG. 6A).

myeloma cell line ARH-77 = test: Actin staining, localization of 2D7-DB and actin; type: cell-based, human; details: ARH-77, 30 minutes of pretreatment with inhibitor 0,1 μM
Description: Furthermore, actin staining of the cells was performed to examine the localization of 2D7-DB (green) and actin (red) (FIG. 6B). […] On the other hand, actin aggregation due to 2D7-DB was not observed in the bone marrow stromal cell line KM102 expressing HLA-A. Thus, actin aggregation effect and cytotoxic activity by 2D7-DB were considered specific to myeloma cells and lymphoid cells, and while 2D7-DB is useful for myeloma and autoimmune diseases, it was considered to have little effect on normal tissues.

[2] = system: HLA-A expression in IM-9 cells; test: Effects of IFNs on HLA-A expression (flow cytometry using 2D7); type: cell-based, human; details: IFN 100 U/mL for 48 hours
Description: IM-9 cells were treated with IFN-α (100 U/mL) or IFN-γ (100 U/mL) for 48 hours. Cell surface expression of HLA-A was analyzed by flow cytometry using 2D7. The staining properties of IFN-treated cells are shown by tick lines, and those of untreated cells are shown by solid lines. Negative control staining properties are shown by dotted lines. (B) A graph indicating the enhancement of 2D7-DB-mediated cytotoxicity by IFN is shown. IM-9 cells were treated with IFN-α (100 U/mL) or IFN-γ (100 U/mL) for 48 hours, and then cultured with 2D7-DB (0.1 or 1 μg/mL) for 24 hours. Cell viabilities were determined by WST-8 assays.
Since cell surface expression of HLA class I is enhanced by IFN stimulation, effects of IFNs on HLA-A expression and 2D7-DB-mediated cytotoxicity were examined using IM-9 cells. After treating IM-9 cells with IFN-α (100 U/mL, OIF 2,500,000 IU, Otsuka Pharmaceutical) or IFN-γ (100 U/mL, Ogamma 100, Otsuka Pharmaceutical) for 48 hours, flow cytometry was performed. […]
Cell surface expression analysis of HLA class I by flow cytometry was performed as follows using FITC-labeled 2D7 mAb or FITC-labeled anti-HLA-ABC common region mAb (Chemicon, San Diego, Calif.). […] Next, the cells were washed twice with PBS, and analyzed using an EPICS XL flow cytometer (Beckman Coulter, Japan). […] HLA class I expression levels were evaluated as GeoMFI using the CellQuest software (BID Biosciences).

COC[C@H]1OC(=O)c2coc3c2[C@@]1(C)C1=C(C3=O)[C@@H]2CCC(=O)[C@@]2(C)C[C@H]1OC(C)=O [Wortmannin]
effect on cytotoxicity of 2D7-DB ([1]; inhibitor 10 μM): did not show effects

C=C1[C@@H](C)[C@H]2[C@H](Cc3ccccc3)NC(=O)[C@]23[C@H](OC(C)=O)/C=C/[C@@](C)(O)C(=O)[C@@H](C)C/C=C/[C@H]3[C@@H]1O [cytochalasin D]
effect on cytotoxicity of 2D7-DB ([1]; inhibitor 1 μM): almost completely suppressed

C/C1=C/C(=O)O[C@@H]2C[C@@H](CC[C@H](C)/C=C\C=C\CC1)O[C@@](O)([C@@H]1CSC(=O)N1)C2 [latrunculin A]
effect on cytotoxicity of 2D7-DB ([1]; inhibitor 0.1 μM): almost completely suppressed | actin aggregation after 2D7-DB addition (myeloma cell line ARH-77): aggregation was not observed

B1: IFN-α: interferon α, OIF 2,500,000 IU, Otsuka Pharmaceutical; amino acid sequence SEQ ID NO: 1 (protein, listed as Homo sapiens)
chain: MASPFALLMVLVVLSCKSSCSLGCDLPETHSLDNRRTLMLLAQMSRISPSSCLMDRHDFGFPQEEFDGNQFQKAPAISVLHELIQQIFNLFTTKDSSAAWDEDLLDKFCTELYQQLNDLEACVMQEERVGETPLMNADSILAVKKYFRRITLYLTEKKYSPCAWEVVRAEIMRSLSLSTNLQERLRRKE
HLA-A expression [2]: up-regulated

B2: IFN-γ: interferon γ, Ogamma 100, Otsuka Pharmaceutical; amino acid sequence SEQ ID NO: 3 (protein, listed as Homo sapiens)
chain: MKYTSYILAFQLCIVLGSLGCYCQDPYVKEAENLKKYFNAGHSDVADNGTLFLGILKNWKEESDRKIMQSQIVSFYFKLFKNFKDDQSIQKSVETIKEDMNVKFFNSNKKKRDDFEKLTNYSVTDLNVQRKAIHELIQVMAELSPAAKTGKRKRSQMLFRGRRASQ
HLA-A expression [2]: up-regulated
